How the values were obtained:
Format in all cases: functional
Mus musculus [1] = assay: Antihyperglycemic activity in NIDDM db/db mouse model assessed as change in plasma glucose level at 0.5 mg/kg, qd after 3 hrs relative to pre-dosed control
Mus musculus [2] = assay: Antihyperglycemic activity in NIDDM db/db mouse model assessed as body weight per mouse at 0.5 mg/kg, qd after 24 hrs
Mus musculus [3] = assay: Antihyperglycemic activity in NIDDM db/db mouse model assessed as change in plasma glucose level at 0.5 mg/kg, qd after 27 hrs relative to pre-dosed control
Mus musculus [4] = assay: Antihyperglycemic activity in NIDDM db/db mouse model assessed as food intake per mouse at 0.5 mg/kg, qd

`CCCCC/C=C/C=C/[C@]12O[C@@H]3[C@@H]4[C@@H]5O[C@]5(CO)[C@@H](O)[C@]5(O)C(=O)C(C)=C[C@H]5[C@@]4(O1)[C@H](COC(=O)CC(C)C)[C@H](OC(=O)CC(C)C)[C@]3([C@]1(C)CO1)O2` [MAPROUNEACIN] gave an Activity (Mus musculus [1]) of -254 mg/dL, an Activity (Mus musculus [2]) of 37.8 g and an Activity (Mus musculus [3]) of -246 mg/dL. It also gave an Activity (Mus musculus [4]) of 0.1 g.

— ChEMBL document CHEMBL1157271, “Maprouneacin, a new daphnane diterpenoid with potent antihyperglycemic activity from Maprounea africana” (1999)
